Test results reported in ChEMBL document CHEMBL3779803, “α-Glucosidase Inhibitory Prenylated Anthranols from Harungana madagascariensis” (J Nat Prod, 2016).

system: Saccharomyces cerevisiae; assay: Inhibition of Saccharomyces cerevisiae alpha-glucosidase at 5 uM using p-nitrophenyl-alpha-D-glucoside as substrate measured for 40 mins by spectrophotometric analysis

Row | inhibition [%] | SMILES
1 | 47 | CC(C)=CCc1c(C)cc2cc3c(c(O)c2c1O)C(=O)C=C(O)C3(CC=C(C)C)CC=C(C)C

molecular target: not listed separately; assay: Inhibition of Saccharomyces cerevisiae alpha-glucosidase using p-nitrophenyl-alpha-D-glucoside as substrate measured for 40 mins by spectrophotometric analysis

Row | IC50 [µM] | SMILES
2 | 117 | Cc1cc(O)c2c3c1[C@H](O)[C@@H]1O[C@]3(OC1(C)C)c1c3c(cc(O)c1C2=O)O[C@@H](C(C)(C)O)C3
3 | 207 | CC(C)=CCc1c(C)cc(O)c2c1[C@@H](O)c1c3c(cc(O)c1C2=O)O[C@@H](C(C)(C)O)C3
4 | 37.7 | CC(C)=CCc1c(C)cc(O)c2c(O)c3c(cc12)C(CC=C(C)C)(CC=C(C)C)C(O)=CC3=O [HARUNGANIN]
5 | 36.9 | CC(C)=CCc1c(C)cc(O)c2c1[C@@H](O)c1c3c(cc(O)c1C2=O)OC(C)(C)[C@@H](O)C3
6 | 1.2 | CC(C)=CCc1c(C)cc2cc3c(c(O)c2c1O)C(=O)C(CC1=C(O)C(CC=C(C)C)(CC=C(C)C)c2cc4cc(C)c(CC=C(C)C)c(O)c4c(O)c2C1=O)=C(O)C3(CC=C(C)C)CC=C(C)C
7 | 44.1 | CC(C)=CCc1c(C)cc(O)c2c1C(O)c1c(CC=C(C)C)c(O)cc(O)c1C2=O (stereo not drawn)
8 | 120 | C[C@@H]1O[C@@H](O[C@@H]2[C@@H](O)[C@H](O)[C@H](O[C@H]3[C@H](O)[C@@H](O)C(O)O[C@@H]3CO)O[C@H]2CO)[C@@H](O)[C@H](O)[C@H]1N[C@H]1C=C(CO)[C@@H](O)[C@H](O)[C@H]1O (stereo partly drawn)
